# Values of other authors, collected in patent US6797282B2, “Combination progestin oral contraceptive regimen” (Ortho-McNeil Pharmaceutical, Inc., priority 1997, dated 2004).
# Test system: endometrium
# Settings: primates; Wilborn et al 1984
compound,measurement,value
C#C[C@]1(OC(C)=O)CC[C@H]2[C@@H]3CCC4=CC(=NO)CC[C@@H]4[C@H]3CC[C@@]21CC (mixture of isomers) [Norgestimate],effect on endometrium in comparison to other progestins,endometrial sparing effect
